According to patent US20090192192A1, “INHIBITORS OF BIOFILM FORMATION OF GRAM-POSITIVE AND GRAM-NEGATIVE BACTERIA” (priority 2007, published 2009):

Test system: Pseudomonas aeruginosa PAO1
Assay: MBEC assay, biofilm formation of P. aeruginosa PAO1
Type: cell-based
Conditions: compound concentration 100 μM, class symbols
Experimental: The compound to be tested was dissolved in DMSO to obtain a concentration that was 100 times that of the final concentration required (1 mM for the 10 μM assay and 10 mM for the 100 μM assay). 1.5 μL of the above solution was placed into each well of a 96 well plate (final volume in each well=150 μL, final DMSO concentration of 1% (v/v)).
To grow the organism and form a biofilm, a cryogenic stock of the test organism (at −70° C.) was used. A first sub-culture was streaked out onto TSA (tryptic soy agar), upon which the plate was incubated at 35±2° C. for 24 hours and stored wrapped in parafilm at 4° C. afterwards. From this first sub-culture, a second sub-culture was streaked out onto TSA. The plate was incubated at 35±2° C. for 24 hours. The second sub-culture was used within 24 hours starting from the time it was first removed from incubation. Using the second sub-culture an inoculum in 3 mL sterile water that matches a 0.5 McFarland Standard (1.5×10^8 cells per mL) was created in a glass test tube using a sterile cotton swab. 2.2 mL of this solution was diluted in 22 mL 100% TSB (tryptic soy broth) medium to a cell density of approximately […]. The diluted organism was inverted 3-5 times to achieve uniform mixing of the organism. One sample (100 μl) of the diluted organism was used for an inoculum check by serially diluting and spot plating on TSA.
To prepare a challenge plate, […] of the diluted organism was added to each well of a 96 well plate except the sterility control wells. The test compounds were added to the wells to make up final concentrations of 10 μM and […] (1.5 μL/well) in the designated location in the test plate. 128.5 μL of 100% universal neutralizer (1% Tween 80 in Cation Adjusted Mueller Hinton Broth, CAMHB) was placed in each of the wells. 130 μL of media was added to the growth control wells. 128.5 μL of media+1.5 μL of DMSO were added to a second set of growth control wells. 150 μL of media was added to the sterility controls. Each sample was run in triplicate. The plate was covered by a lid with a peg per well and wrapped in parafilm and placed on a shaker in a humidified incubator (GeneVac) at 35±+2° C. for 24 hours set at 110 rpm.
Rinse plate(s) of 0.9% saline (200 μL per well) were prepared in a sterile 96 well microtitre plate. Lid-associated pegs were rinsed in 0.9% saline for approximately 1-2 minutes. The peg lid was transferred to the recovery media (1.0% Tween 80 in CAMHB) then sonicated for 30 minutes to dislodge surviving biofilm. Following sonication, 100 μL from each well of the 96 well plate was placed into the first 12 wells of the first row of a 96 well microtiter plate. 180 μl of 0.9% sterile saline was placed in the remaining rows. A serial dilution (10^0-10^7) was prepared by moving 20 μl down each of the 8 rows. 20 μl from each well was removed and spot plated on a prepared TSA. In the remaining recovery plate, 100 μl of fresh growth media (1.0% Tween 80 in CAMHB) was placed in each well to replace the amount removed. The recovery plate was covered with a regular lid and incubated at 35±2° C. for 24 hours and read visually to confirm antimicrobial activity of the test compounds.
The compounds of the present disclosure have been tested regarding their efficiency to inhibit biofilm formation of Staphylococcus aureus U of C#18 (MRSA), Staphylococcus aureus 456 (MRSA), Staphylococcus epidermidis RP62A, and Pseudomonas aeruginosa PAO1.

Question: Which inhibition at 100 µM does the source give for `CCCCCCCCCC(=O)N[C@@H]1CCCC[C@H]1O` (relative stereo) [Example 34, trans-N-(2-hydroxycyclohexyl)decanamide] here?
Answer: 20 to 50%

Question: With `CCCCCCCCCCCC(=O)N[C@@H]1CCCC[C@H]1O` (relative stereo) [Example 35, trans-N-(2-hydroxycyclohexyl)dodecanamide] as the molecule, how does the inhibition at 100 µM read?
Answer: 20 to 50%

Question: How did the inhibition at 100 µM turn out when `CCCCCCCCCC(=O)N[C@H]1CCC[C@H]1C(=O)O` (relative stereo) [Example 36, cis-2-decanamidocyclopentanecarboxylic acid] was run?
Answer: < 20%

Question: With `CCCCCCCCCCCC(=O)Nc1ccccc1` [Example 13, N-phenyldodecanamide] as the molecule, how does the inhibition at 100 µM read?
Answer: < 20%

Question: For `CCCCCCCCCCCC(=O)N(C)c1ccccc1` [Example 14, N-methyl-N-phenyldodecanamide], which inhibition at 100 µM is on record?
Answer: > 50%

Question: For `CCCCCCCCCCCC(=O)Nc1ccccc1F` [Example 15, N-(2-fluorophenyl)dodecanamide], which inhibition at 100 µM is on record?
Answer: < 20%

Question: For `CCCCCCCCCCCC(=O)N(C)c1ccccc1F` [Example 16, N-(2-fluorophenyl)-N-methyldodecanamide], which inhibition at 100 µM is on record?
Answer: > 50%

Question: With `CCCCCCCCCCCC(=O)Nc1cccc(F)c1` [Example 17, N-(3-fluorophenyl)dodecanamide] as the molecule, how does the inhibition at 100 µM read?
Answer: 20 to 50%

Question: How did the inhibition at 100 µM turn out when `CCCCCCCCCCCC(=O)N(C)c1cccc(F)c1` [Example 18, N-(3-fluorophenyl)-N-methyldodecanamide] was run?
Answer: > 50%

Question: `CCCCCCCCCCCC(=O)Nc1ccc(F)cc1` [Example 19, N-(4-fluorophenyl)dodecanamide] was tested. Which inhibition at 100 µM did it give?
Answer: < 20%

Question: `CCCCCCCCCCCC(=O)N(C)c1ccc(F)cc1` [Example 20, N-(4-fluorophenyl)-N-methyldodecanamide] was tested. Which inhibition at 100 µM did it give?
Answer: > 50%

Question: For `CCCCCCCCCCCC(=O)Nc1ccc(F)cc1F` [Example 21, N-(2,4-difluorophenyl)dodecanamide], which inhibition at 100 µM is on record?
Answer: < 20%

Question: For `CCCCCCCCCCCC(=O)N(C)c1ccc(F)cc1F` [Example 22, N-(2,4-difluorophenyl)-N-methyldodecanamide], which inhibition at 100 µM is on record?
Answer: > 50%

Question: Which inhibition at 100 µM does the source give for `CCCCCCCCCCCC(=O)Nc1ccccc1C(F)(F)F` [Example 23, N-(2-(trifluoromethyl)phenyl)dodecanamide] here?
Answer: < 20%

Question: For `CCCCCCCCCCCC(=O)Nc1ccc(F)cc1C(F)(F)F` [Example 24, N-(4-fluoro-2-(trifluoromethyl)phenyl)dodecanamide], which inhibition at 100 µM is on record?
Answer: < 20%

Question: How did the inhibition at 100 µM turn out when `CCCCCCCCCCCC(=O)Nc1ccccc1C(=O)O` [Example 25, 2-dodecanamidobenzoic acid] was run?
Answer: > 50%

Question: Which inhibition at 100 µM does the source give for `CCCCCCCCCCCC(=O)N(C)c1ccccc1C(=O)O` [Example 26, 2-(N-methyldodecanamido)benzoic acid] here?
Answer: 20 to 50%

Question: For `CCCCCCCCCCCC(=O)Nc1ccccc1S(=O)(=O)O` [Example 27, 2-dodecanamidobenzenesulfonic acid], which inhibition at 100 µM is on record?
Answer: 20 to 50%

Question: With `CCCCCCCCCCCC(=O)N[C@@H](C)c1ccccc1` [Example 28, (S)-N-(1-phenylethyl)dodecanamide] as the molecule, how does the inhibition at 100 µM read?
Answer: 20 to 50%

Question: `CCCCCCCCCC(=O)NCc1ccco1` [Example 29, N-(furan-2-ylmethyl)decanamide] was tested. Which inhibition at 100 µM did it give?
Answer: 20 to 50%

Question: With `CCCCCCCCCCCC(=O)Nc1cc(C)nn1C(C)(C)C` [Example 30, N-(1-tert-butyl-3-methylpyrazol-5-yl)dodecanamide] as the molecule, how does the inhibition at 100 µM read?
Answer: > 50%

Question: For `CCCCCCCCCCCC(=O)Nc1cc(C)nn1-c1ccccc1` [Example 31, N-(3-methyl-1-phenylpyrazol-5-yl)dodecanamide], which inhibition at 100 µM is on record?
Answer: < 20%

Question: Which inhibition at 100 µM does the source give for `CCCCCCCCCC(=O)N[C@H]1CCOC1=O` [Example 32, N-decanoyl-L-homoserinelactone] here?
Answer: < 20%

Question: `CCCCCCCCCCCC(=O)N[C@H]1CCOC1=O` [Example 33, N-dodecanoyl-L-homoserinelactone] was tested. Which inhibition at 100 µM did it give?
Answer: < 20%

Question: For `CCCCCCCCCCCC(=O)N1CCCCC1CO` (centres unmarked) [Example 37, 1-(2-(hydroxymethyl)piperidin-1-yl)dodecan-1-one], which inhibition at 100 µM is on record?
Answer: > 50%

Question: For `CCCCNC(=O)Nc1cc(C)nn1C` [Example 38, 1-butyl-3-(1,3-dimethylpyrazol-5-yl)urea], which inhibition at 100 µM is on record?
Answer: < 20%

Question: How did the inhibition at 100 µM turn out when `CCCCNC(=O)Nc1cc(C2CC2)nn1C` [Example 39, 1-butyl-3-(3-cyclopropyl-1-methylpyrazol-5-yl)urea] was run?
Answer: < 20%

Question: For `CCCCNC(=O)Nc1cc(C(C)(C)C)nn1C` [Example 40, 1-butyl-3-(3-tert-butyl-1-methylpyrazol-5-yl)urea], which inhibition at 100 µM is on record?
Answer: < 20%

Question: For `CCCCCCNC(=O)Nc1cc(C)nn1C` [Example 41, 1-(1,3-dimethylpyrazol-5-yl)-3-hexylurea], which inhibition at 100 µM is on record?
Answer: < 20%

Question: Which inhibition at 100 µM does the source give for `CCCCCCNC(=O)Nc1cc(C2CC2)nn1C` [Example 42, 1-(3-cyclopropyl-1-methylpyrazol-5-yl)-3-hexylurea] here?
Answer: 20 to 50%

Question: With `CCCCCCNC(=O)Nc1cc(C(C)(C)C)nn1C` [Example 43, 1-(3-tert-butyl-1-methylpyrazol-5-yl)-3-hexylurea] as the molecule, how does the inhibition at 100 µM read?
Answer: 20 to 50%

Question: With `CCCCCCCCNC(=O)Nc1cc(C)nn1C` [Example 44, 1-(1,3-dimethylpyrazol-5-yl)-3-octylurea] as the molecule, how does the inhibition at 100 µM read?
Answer: 20 to 50%

Question: Which inhibition at 100 µM does the source give for `CCCCCCCCNC(=O)Nc1cc(C2CC2)nn1C` [Example 45, 1-(3-cyclopropyl-1-methylpyrazol-5-yl)-3-octylurea] here?
Answer: 20 to 50%

Question: Which inhibition at 100 µM does the source give for `CCCCCCCCNC(=O)Nc1cc(C(C)(C)C)nn1C` [Example 46, 1-(3-tert-butyl-1-methylpyrazol-5-yl)-3-octylurea] here?
Answer: > 50%

Question: `CCCCCCCCCCNC(=O)Nc1ccccc1` [Example 48, 1-decyl-3-phenylurea] was tested. Which inhibition at 100 µM did it give?
Answer: < 20%

Question: How did the inhibition at 100 µM turn out when `CCCCCCCCCCNC(=O)Nc1ccccc1F` [Example 49, 1-decyl-3-(2-fluorophenyl)urea] was run?
Answer: < 20%

Question: Which inhibition at 100 µM does the source give for `CCCCCCCCCCNC(=O)N(C)c1ccccc1F` [Example 50, 3-decyl-1-(2-fluorophenyl)-1-methylurea] here?
Answer: 20 to 50%

Question: With `CCCCCCCCCCNC(=O)Nc1cccc(F)c1` [Example 51, 1-decyl-3-(3-fluorophenyl)urea] as the molecule, how does the inhibition at 100 µM read?
Answer: < 20%

Question: For `CCCCCCCCCCNC(=O)N(C)c1cccc(F)c1` [Example 52, 3-decyl-1-(3-fluorophenyl)-1-methylurea], which inhibition at 100 µM is on record?
Answer: 20 to 50%

Question: For `CCCCCCCCCCNC(=O)Nc1ccc(F)cc1` [Example 53, 1-decyl-3-(4-fluorophenyl)urea], which inhibition at 100 µM is on record?
Answer: < 20%

Question: Which inhibition at 100 µM does the source give for `CCCCCCCCCCNC(=O)N(C)c1ccc(F)cc1` [Example 54, 3-decyl-1-(4-fluorophenyl)-1-methylurea] here?
Answer: > 50%

Question: `CCCCCCCCCCNC(=O)Nc1ccc(F)cc1F` [Example 55, 1-decyl-3-(2,4-difluorophenyl)urea] was tested. Which inhibition at 100 µM did it give?
Answer: < 20%

Question: For `CCCCCCCCCCNC(=O)N(C)c1ccc(F)cc1F` [Example 56, 3-decyl-1-(2,4-difluorophenyl)-1-methylurea], which inhibition at 100 µM is on record?
Answer: < 20%

Question: `CCCCCCCCCCNC(=O)Nc1ccccc1C(F)(F)F` [Example 57, 1-decyl-3-(2-(trifluoromethyl)phenyl)urea] was tested. Which inhibition at 100 µM did it give?
Answer: 20 to 50%

Question: `CCCCCCCCCCNC(=O)N(C)c1ccccc1C(F)(F)F` [Example 58, 3-decyl-1-methyl-1-(2-(trifluoromethyl)phenyl)urea] was tested. Which inhibition at 100 µM did it give?
Answer: > 50%

Question: Which inhibition at 100 µM does the source give for `CCCCCCCCCCNC(=O)N[C@@H](C)c1ccccc1` [Example 59, (S)-1-decyl-3-(1-phenylethyl)urea] here?
Answer: < 20%

Question: How did the inhibition at 100 µM turn out when `CCCCCCCCCCNC(=O)N(C)[C@H](C)c1ccccc1` [Example 60, (R)-3-decyl-1-methyl-1-(1-phenylethyl)urea] was run?
Answer: > 50%

Question: How did the inhibition at 100 µM turn out when `CCCCCCCCCCNC(=O)Nc1ccnn1C` [Example 61, 1-decyl-3-(1-methylpyrazol-5-yl)urea] was run?
Answer: 20 to 50%

Question: For `CCCCCCCCCCNC(=O)Nc1cc(C)ns1` [Example 62, 1-decyl-3-(3-methylisothiazol-5-yl)urea], which inhibition at 100 µM is on record?
Answer: < 20%

Question: For `CCCCCCCCCCNC(=O)Nc1cc(C)nn1C` [Example 63, 1-decyl-3-(1,3-dimethylpyrazol-5-yl)urea], which inhibition at 100 µM is on record?
Answer: 20 to 50%
